{"source": "PubChem BioAssay (NCI)", "assay_in_all_cases": "inhibition of tumour cell growth, NCI panel, 48 h", "key": {"786-0 renal": {"system": "786-0 renal"}, "A498 renal": {"system": "A498 renal"}, "A549 NSCLC": {"system": "A549 NSCLC"}, "ACHN renal": {"system": "ACHN renal"}, "BT-549 breast": {"system": "BT-549 breast"}, "CAKI-1 renal": {"system": "CAKI-1 renal"}, "CCRF-CEM leukemia": {"system": "CCRF-CEM leukemia"}, "COLO 205 colon": {"system": "COLO 205 colon"}, "DU-145 prostate": {"system": "DU-145 prostate"}, "EKVX NSCLC": {"system": "EKVX NSCLC"}, "HCC-2998 colon": {"system": "HCC-2998 colon"}, "HCT-116 colon": {"system": "HCT-116 colon"}, "HCT-15 colon": {"system": "HCT-15 colon"}, "HL-60(TB) leukemia": {"system": "HL-60(TB) leukemia"}, "HOP-62 NSCLC": {"system": "HOP-62 NSCLC"}, "HOP-92 NSCLC": {"system": "HOP-92 NSCLC"}, "HS 578T breast": {"system": "HS 578T breast"}, "HT29 colon": {"system": "HT29 colon"}, "IGROV1 ovarian": {"system": "IGROV1 ovarian"}, "K-562 leukemia": {"system": "K-562 leukemia"}, "KM12 colon": {"system": "KM12 colon"}, "LOX IMVI melanoma": {"system": "LOX IMVI melanoma"}, "M14 melanoma": {"system": "M14 melanoma"}, "MALME-3M melanoma": {"system": "MALME-3M melanoma"}, "MCF7 breast": {"system": "MCF7 breast"}, "MDA-MB-231 breast": {"system": "MDA-MB-231 breast"}, "MDA-MB-435": {"system": "MDA-MB-435"}, "MOLT-4 leukemia": {"system": "MOLT-4 leukemia"}, "NCI-H226 lung": {"system": "NCI-H226 lung"}, "NCI-H23 lung": {"system": "NCI-H23 lung"}, "NCI-H460 lung": {"system": "NCI-H460 lung"}, "NCI-H522 lung": {"system": "NCI-H522 lung"}, "NCI/ADR-RES ovarian": {"system": "NCI/ADR-RES ovarian"}, "OVCAR-3 ovarian": {"system": "OVCAR-3 ovarian"}, "OVCAR-4 ovarian": {"system": "OVCAR-4 ovarian"}, "OVCAR-5 ovarian": {"system": "OVCAR-5 ovarian"}, "OVCAR-8 ovarian": {"system": "OVCAR-8 ovarian"}, "PC-3 prostate": {"system": "PC-3 prostate"}, "RPMI-8226 leukemia": {"system": "RPMI-8226 leukemia"}, "RXF 393 renal": {"system": "RXF 393 renal"}, "SF-268 CNS": {"system": "SF-268 CNS"}, "SF-295 CNS": {"system": "SF-295 CNS"}, "SF-539 CNS": {"system": "SF-539 CNS"}, "SK-MEL-2 melanoma": {"system": "SK-MEL-2 melanoma"}, "SK-MEL-28 melanoma": {"system": "SK-MEL-28 melanoma"}, "SK-MEL-5 melanoma": {"system": "SK-MEL-5 melanoma"}, "SK-OV-3 ovarian": {"system": "SK-OV-3 ovarian"}, "SN12C renal": {"system": "SN12C renal"}, "SNB-19 CNS": {"system": "SNB-19 CNS"}, "SNB-75 CNS": {"system": "SNB-75 CNS"}, "SR leukemia": {"system": "SR leukemia"}, "SW-620 colon": {"system": "SW-620 colon"}, "T-47D breast": {"system": "T-47D breast"}, "TK-10 renal": {"system": "TK-10 renal"}, "U251 CNS": {"system": "U251 CNS"}, "UACC-257 melanoma": {"system": "UACC-257 melanoma"}, "UACC-62 melanoma": {"system": "UACC-62 melanoma"}, "UO-31 renal": {"system": "UO-31 renal"}}, "note": "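These data come from cells grown in 96-well plates and exposed to compound for 48 hours at five concentrations. Definition used: TGI = concentration required for complete inhibition of growth.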"}
{"compound": "COc1cc(/C=N/n2c(-c3ccccc3)n[nH]c2=O)cc(OC)c1OC", "values": [{"measurement": "TGI", "setting": "786-0 renal", "value": 48.2, "unit": "µM"}, {"measurement": "TGI", "setting": "A498 renal", "value": 17.4, "unit": "µM"}, {"measurement": "TGI", "setting": "A549 NSCLC", "value": "> 100", "unit": "µM"}, {"measurement": "TGI", "setting": "ACHN renal", "value": 40.5, "unit": "µM"}, {"measurement": "TGI", "setting": "BT-549 breast", "value": 18.6, "unit": "µM"}, {"measurement": "TGI", "setting": "CAKI-1 renal", "value": 21.7, "unit": "µM"}, {"measurement": "TGI", "setting": "CCRF-CEM leukemia", "value": "> 100", "unit": "µM"}, {"measurement": "TGI", "setting": "COLO 205 colon", "value": "> 100", "unit": "µM"}, {"measurement": "TGI", "setting": "DU-145 prostate", "value": "> 76.2", "unit": "µM"}, {"measurement": "TGI", "setting": "EKVX NSCLC", "value": "> 100", "unit": "µM"}, {"measurement": "TGI", "setting": "HCC-2998 colon", "value": "> 100", "unit": "µM"}, {"measurement": "TGI", "setting": "HCT-116 colon", "value": "> 100", "unit": "µM"}, {"measurement": "TGI", "setting": "HCT-15 colon", "value": "> 100", "unit": "µM"}, {"measurement": "TGI", "setting": "HL-60(TB) leukemia", "value": "> 100", "unit": "µM"}, {"measurement": "TGI", "setting": "HOP-62 NSCLC", "value": 33.1, "unit": "µM"}, {"measurement": "TGI", "setting": "HOP-92 NSCLC", "value": "> 82.2", "unit": "µM"}, {"measurement": "TGI", "setting": "HS 578T breast", "value": 20.2, "unit": "µM"}, {"measurement": "TGI", "setting": "HT29 colon", "value": "> 100", "unit": "µM"}, {"measurement": "TGI", "setting": "IGROV1 ovarian", "value": "> 100", "unit": "µM"}, {"measurement": "TGI", "setting": "K-562 leukemia", "value": "> 100", "unit": "µM"}, {"measurement": "TGI", "setting": "KM12 colon", "value": "> 100", "unit": "µM"}, {"measurement": "TGI", "setting": "LOX IMVI melanoma", "value": "> 100", "unit": "µM"}, {"measurement": "TGI", "setting": "M14 melanoma", "value": "> 100", "unit": "µM"}, {"measurement": "TGI", "setting": "MALME-3M melanoma", "value": 48.8, "unit": "µM"}, {"measurement": "TGI", "setting": "MCF7 breast", "value": "> 100", "unit": "µM"}, {"measurement": "TGI", "setting": "MDA-MB-231 breast", "value": "> 61.8", "unit": "µM"}, {"measurement": "TGI", "setting": "MDA-MB-435", "value": 6.43, "unit": "µM"}, {"measurement": "TGI", "setting": "MOLT-4 leukemia", "value": "> 100", "unit": "µM"}, {"measurement": "TGI", "setting": "NCI-H226 lung", "value": "> 100", "unit": "µM"}, {"measurement": "TGI", "setting": "NCI-H23 lung", "value": "> 71.8", "unit": "µM"}, {"measurement": "TGI", "setting": "NCI-H460 lung", "value": "> 100", "unit": "µM"}, {"measurement": "TGI", "setting": "NCI-H522 lung", "value": "> 58.1", "unit": "µM"}, {"measurement": "TGI", "setting": "NCI/ADR-RES ovarian", "value": 9.96, "unit": "µM"}, {"measurement": "TGI", "setting": "OVCAR-3 ovarian", "value": "> 37.5", "unit": "µM"}, {"measurement": "TGI", "setting": "OVCAR-4 ovarian", "value": "> 100", "unit": "µM"}, {"measurement": "TGI", "setting": "OVCAR-5 ovarian", "value": "> 100", "unit": "µM"}, {"measurement": "TGI", "setting": "OVCAR-8 ovarian", "value": "> 100", "unit": "µM"}, {"measurement": "TGI", "setting": "PC-3 prostate", "value": "> 100", "unit": "µM"}, {"measurement": "TGI", "setting": "RPMI-8226 leukemia", "value": "> 100", "unit": "µM"}, {"measurement": "TGI", "setting": "RXF 393 renal", "value": 29.8, "unit": "µM"}, {"measurement": "TGI", "setting": "SF-268 CNS", "value": 40.7, "unit": "µM"}, {"measurement": "TGI", "setting": "SF-295 CNS", "value": 18, "unit": "µM"}, {"measurement": "TGI", "setting": "SF-539 CNS", "value": 39.1, "unit": "µM"}, {"measurement": "TGI", "setting": "SK-MEL-2 melanoma", "value": "> 59", "unit": "µM"}, {"measurement": "TGI", "setting": "SK-MEL-28 melanoma", "value": "> 100", "unit": "µM"}, {"measurement": "TGI", "setting": "SK-MEL-5 melanoma", "value": "> 100", "unit": "µM"}, {"measurement": "TGI", "setting": "SK-OV-3 ovarian", "value": "> 25", "unit": "µM"}, {"measurement": "TGI", "setting": "SN12C renal", "value": "> 100", "unit": "µM"}, {"measurement": "TGI", "setting": "SNB-19 CNS", "value": "> 43.1", "unit": "µM"}, {"measurement": "TGI", "setting": "SNB-75 CNS", "value": "> 30.2", "unit": "µM"}, {"measurement": "TGI", "setting": "SR leukemia", "value": "> 100", "unit": "µM"}, {"measurement": "TGI", "setting": "SW-620 colon", "value": "> 100", "unit": "µM"}, {"measurement": "TGI", "setting": "T-47D breast", "value": "> 100", "unit": "µM"}, {"measurement": "TGI", "setting": "TK-10 renal", "value": "> 65.9", "unit": "µM"}, {"measurement": "TGI", "setting": "U251 CNS", "value": "> 42.3", "unit": "µM"}, {"measurement": "TGI", "setting": "UACC-257 melanoma", "value": "> 100", "unit": "µM"}, {"measurement": "TGI", "setting": "UACC-62 melanoma", "value": "> 100", "unit": "µM"}, {"measurement": "TGI", "setting": "UO-31 renal", "value": "> 100", "unit": "µM"}]}
